These results are taken from patent US20050049207A1 (priority 2003, published 2005).

Data set [1] has as its system prostate, lung and colorectal cancer. As to conditions: selenium supplements, humans; cited from earlier work.
A further data set concerns prostate cancer. The data set is described as follows: Case 4: person with prostate cancer on Phase I diet and antifungals. It is filed as in vivo, man. To be noted: one patient; Phase I diet 2 months, nystatin 2 months, then UGN, Caprylic acid, GSE; PSA closer to 4.0 at cancer diagnosis. The source says:
4. A person was diagnosed as having prostrate cancer. UTSW study for BPH ×5-6 yrs. Biopsy prior and post program. Normal PSA! At post-study diagnosis, cancer was found: October 2001. They moved to OKC and started watching Doug's show.
Past history includes heavy use of antibiotics, recurrently for allergies, sinusitis.
Went to MD Anderson—found cancer in different place of the prostate, but Cancer was confirmed nonetheless. Gleason stage 7.
Started on Phase I for 2 months (had severe die-off ×4 days—including fever), nystatin thereafter ×2 months. Cont'd diet for 4 months and stays on a variant of the diet. On UGN, Caprylic acid, GSE now ×3 months. Saw John Hogan, D.O. (OKC). Past 2 yrs: PSA now is 1.1. Was closer to 4.0 at the time of cancer diagnosis.
F/U Ultrasound: cannot find any tumors. Whole body scans have been negative.

For a further data set, the system named is leukemia. As to conditions: human, in vivo; cited from earlier work.
The subject of the next data set is PSA levels. As to conditions: men with prostate cancer; cited from earlier work.
The subject of data set [2] is primary human urothelial cells. To be noted: cited from earlier work.
The next data set has as its system Saccharomyces cerevisiae. To be noted: Saccharomyces cerevisiae (brewer's/baker's yeast); cited from earlier work.
The next data set deals with Candida albicans. To be noted: cited from earlier work.
For data set [3] the following is noted: in vivo; cited from earlier work.
Data set [4] relates to p53 tumor suppressor gene. As to conditions: cited from earlier work.

With `[Se]` [Selenium], in data set [1], the “lower risk of developing cancer” value is 37% and the “lower risk of dying from the cancer” value is listed as 50%.

Consider `C[C@@H]1[C@H](O)[C@@H](C)/C=C/C=C/CC/C=C/C=C/C=C/C=C/C(O[C@H]2O[C@H](C)[C@@H](O)[C@H](N)[C@@H]2O)CC2O[C@](O)(CC(O)C(O)CCC(O)CC(O)CC(O)CC(=O)O[C@H]1C)CC(O)C2C(=O)O` (stereo partly shown) [nystatin], for which, in the data set on prostate cancer, the PSA is 1.1. With `C[C@@H]1[C@H](O)[C@@H](C)/C=C/C=C/C=C/C=C/C=C/C=C/C=C/[C@H](O[C@@H]2O[C@H](C)[C@@H](O)[C@H](N)[C@@H]2O)C[C@@H]2O[C@](O)(C[C@@H](O)C[C@@H](O)[C@H](O)CC[C@@H](O)C[C@@H](O)CC(=O)O[C@H]1C)C[C@H](O)[C@H]2C(=O)O` [amphotericin B], in the data set on leukemia, the “effect on (secondary) fungal infections” value is “cured their (secondary) fungal infections” and the “effect on cancer (leukemia)” value was “successfully treated their cancer”. In the case of `CC(=O)N1CCN(c2ccc(OCC3COC(Cn4ccnc4)(c4ccc(Cl)cc4Cl)O3)cc2)CC1` (stereo not shown) [ketoconazole], the “effect on PSA levels” value in the data set on PSA levels is on record as “lowered PSA levels”.

Take `C[C@@H]1Cc2c(Cl)cc(C(=O)N[C@@H](Cc3ccccc3)C(=O)O)c(O)c2C(=O)O1` [ochratoxin A]: the “unscheduled DNA synthesis” value in data set [2] is “Induction of unscheduled DNA synthesis”.

Take `CC/C(=C(\c1ccccc1)c1ccc(OCCN(C)C)cc1)c1ccccc1` [Tamoxifen]: the antifungal action entry in the data set with Saccharomyces cerevisiae and with Candida albicans was “marked antifungal action” each time. Regarding `OC(Cn1cncn1)(Cn1cncn1)c1ccc(F)cc1F` [fluconazole], in the data set on leukemia, the “effect on (secondary) fungal infections” value was “cured their (secondary) fungal infections” and the “effect on cancer (leukemia)” value was “successfully treated their cancer”.

Consider aflatoxin B1, for which, in data set [3], the “liver carcinoma after exposure” value is reported as “develop liver carcinoma”. For the same compound, in [4], the “mutation of p53 tumor suppressor gene” value was “induces the transversion of G→T in codon 249”.
